Reference: patent US6737383B1, “Herbicidal oxadiazolidines” (priority 1999, dated 2004)

Experiments:
bedstraw = assay: Test B pre/postemergence bedstraw; assay type: in vivo, Galium aparine
Procedure, shortened: (§1)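 Herbicidal effect was estimated by eye on a ten-point control scale after plants spent twelve to sixteen days in a greenhouse following soil or foliar treatment. Foliar sprays targeted plants at one to four leaves; all doses were formulated in a non-phytotoxic solvent with surfactant.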

blackgrass = assay: Test B pre/postemergence blackgrass; assay type: in vivo, Alopecurus myosuroides
Procedure, shortened: as §1

surinam grass = assay: Test B pre/postemergence surinam grass; assay type: in vivo, Brachiaria decumbens
Procedure, shortened: as §1

cocklebur = assay: Test B pre/postemergence cocklebur; assay type: in vivo, Xanthium strumarium
Procedure, shortened: as §1

corn = assay: Test B pre/postemergence corn; assay type: in vivo, Zea mays
Procedure, shortened: as §1

crabgrass = assay: Test B pre/postemergence crabgrass; assay type: in vivo, Digitaria sanguinalis
Procedure, shortened: as §1

giant foxtail = assay: Test B pre/postemergence giant foxtail; assay type: in vivo, Setaria faberii
Procedure, shortened: as §1

morningglory = assay: Test B pre/postemergence morningglory; assay type: in vivo, Ipomoea hederacea
Procedure, shortened: as §1

pigweed = assay: Test B pre/postemergence pigweed; assay type: in vivo, Amaranthus retroflexus
Procedure, shortened: as §1

rape = assay: Test B pre/postemergence rape; assay type: in vivo, Brassica napus
Procedure, shortened: as §1

sugar beet = assay: Test B pre/postemergence sugar beet; assay type: in vivo, Beta vulgaris
Procedure, shortened: as §1

wheat = assay: Test B pre/postemergence wheat; assay type: in vivo, Triticum aestivum
Procedure, shortened: as §1

wild oat = assay: Test B pre/postemergence wild oat; assay type: in vivo, Avena fatua
Procedure, shortened: as §1

purple nutsedge = assay: Test B pre/postemergence purple nutsedge; assay type: in vivo, Cyperus rotundus
Procedure, shortened: as §1

rice = assay: Test B flood test rice; assay type: in vivo, Oryza sativa
Procedure, shortened: (§2)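 Flood test on plants grown to the 2-leaf stage; treated plants kept in greenhouse twelve to sixteen days, then visually rated against controls on a 0 (no effect) to 10 (complete control) scale.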

bamyardgrass = assay: Test B flood test barnyardgrass; assay type: in vivo, Echinochloa crus-galli
Procedure, shortened: as §2

[1] = Postemergence, Rate 250 g/ha, scale 0 to 10
[2] = Preemergence, Rate 125 g/ha, scale of 0 to 10 where 0 is no effect and 10 is complete control
[3] = Preemergence, Rate 250 g/ha, scale 0 to 10, 0 is no effect, 10 is complete control
[4] = Preemergence, Rate 500 g/ha, scale 0 to 10, 0 is no effect, 10 is complete control
[5] = Rate 125 g/ha, Postemergence, scale 0 to 10, 0 is no effect, 10 is complete control
[6] = Rate 1000 g/ha, Preemergence, scale 0 to 10 (0 no effect, 10 complete control)
[7] = Postemergence, Rate 500 g/ha, scale of 0 to 10 where 0 is no effect and 10 is complete control
[8] = Postemergence, Rate 1000 g/ha, scale 0 to 10 (0 no effect, 10 complete control)
[9] = Pre-emergence, Rate 1000 g/ha, scale 0 to 10 (0 no effect, 10 complete control)
[10] = Rate 125 g/ha, under heading Pre-emergence, flood test species, visual evaluation after twelve to sixteen days
[11] = Rate 250 g/ha, Pre-emergence (flood test species), scale 0 to 10, 0 is no effect, 10 is complete control
[12] = Rate 500 g/ha, Pre-emergence, flood test species, scale 0 to 10 (0 no effect, 10 complete control)

With `CCOP(=O)(OCC)C(C)n1c(=O)on(C(=O)N(c2ccccc2)C(C)C)c1=O` (centres unmarked) [Compound 448] the “Bedstraw plant response rating” value (bedstraw; [1]) was 0, the “Plant response rating, Bedstraw” value (bedstraw; [2]) was 0 and the “Bedstraw plant response rating” value (bedstraw; [3]) was 0. The “Bedstraw plant response rating” value (bedstraw; [4]) was 0, the “Bedstraw plant response rating” value (bedstraw; [5]) was 0 and the “Plant response rating, Bedstraw” value (bedstraw; [6]) was 0. For the same compound, the “Blackgrass plant response rating” value (blackgrass; [1]) was 0, the “Blackgrass plant response rating” value (blackgrass; [7]) was 0 and the “Blackgrass plant response rating” value (blackgrass; [8]) was 2. For the same compound, the “Plant response rating, Blackgrass” value (blackgrass; [2]) was 0, the “Blackgrass plant response rating” value (blackgrass; [3]) was 0 and the “Blackgrass plant response rating” value (blackgrass; [4]) was 2. The “Blackgrass plant response rating” value (blackgrass; [5]) was 0, the “Plant response rating, Blackgrass” value (blackgrass; [6]) was 4 and the “B. signalgrass plant response rating” value (surinam grass; Postemergence, Rate 250 g/ha, scale 0 to 10, 0 no effect, 10 complete control) was 0. The “B. signalgrass plant response rating” value (surinam grass; [7]) was 0, the “B. signalgrass plant response rating” value (surinam grass; [8]) was 0 and the “Plant response rating, B. signalgrass” value (surinam grass; [2]) was 0. The “B. signalgrass plant response rating” value (surinam grass; [3]) was 0, the “B. signalgrass plant response rating” value (surinam grass; [4]) was 2 and the “B. signalgrass plant response rating” value (surinam grass; [5]) was 0. The “Plant response rating, B. signalgrass” value (surinam grass; [6]) was 4, the “Cocklebur plant response rating” value (cocklebur; [1]) was 0 and the “Cocklebur plant response rating” value (cocklebur; [7]) was 0. The “Cocklebur plant response rating” value (cocklebur; [8]) was 0, the “Plant response rating, Cocklebur” value (cocklebur; [2]) was 0 and the “Cocklebur plant response rating” value (cocklebur; [3]) was 0. For the same compound, the “Cocklebur plant response rating” value (cocklebur; [5]) was 0, the “Corn plant response rating” value (corn; [1]) was 0 and the “Corn plant response rating” value (corn; [7]) was 0. The “Corn plant response rating” value (corn; [8]) was 0, the “Plant response rating, Corn” value (corn; [2]) was 0 and the “Corn plant response rating” value (corn; [3]) was 0. The “Corn plant response rating” value (corn; [4]) was 0, the “Corn plant response rating” value (corn; [5]) was 0 and the “Plant response rating, Corn” value (corn; [6]) was 2. The “Crabgrass plant response rating” value (crabgrass; [1]) was 0, the “Crabgrass plant response rating” value (crabgrass; [7]) was 0 and the “Crabgrass plant response rating” value (crabgrass; [8]) was 0. For the same compound, the “Plant response rating, Crabgrass” value (crabgrass; [2]) was 4, the “Crabgrass plant response rating” value (crabgrass; [3]) was 4 and the “Crabgrass plant response rating” value (crabgrass; [4]) was 9. For the same compound, the “Crabgrass plant response rating” value (crabgrass; [5]) was 0, the “Plant response rating, Crabgrass” value (crabgrass; [6]) was 9 and the “Giant foxtail plant response rating” value (giant foxtail; [1]) was 0. For the same compound, the “Giant foxtail plant response rating” value (giant foxtail; [7]) was 0, the “Giant foxtail plant response rating” value (giant foxtail; [8]) was 0 and the “Plant response rating, Giant foxtail” value (giant foxtail; [2]) was 2. The “Giant foxtail plant response rating” value (giant foxtail; [3]) was 3, the “Giant foxtail plant response rating” value (giant foxtail; [4]) was 9 and the “Giant foxtail plant response rating” value (giant foxtail; [5]) was 0. For the same compound, the “Plant response rating, Giant foxtail” value (giant foxtail; [6]) was 9, the “Morningglory plant response rating” value (morningglory; [1]) was 2 and the “Morningglory plant response rating” value (morningglory; [7]) was 5. For the same compound, the “Morningglory plant response rating” value (morningglory; [8]) was 8, the “Plant response rating, Morningglory” value (morningglory; [2]) was 0 and the “Morningglory plant response rating” value (morningglory; [3]) was 0. For the same compound, the “Morningglory plant response rating” value (morningglory; [4]) was 0, the “Morningglory plant response rating” value (morningglory; [5]) was 0 and the “Plant response rating, Morningglory” value (morningglory; [6]) was 0. For the same compound, the “Redroot pigweed plant response rating” value (pigweed; [1]) was 0, the “Redroot pigweed plant response rating” value (pigweed; [7]) was 0 and the “Redroot pigweed plant response rating” value (pigweed; [8]) was 0. For the same compound, the “Plant response rating, Redroot pigweed” value (pigweed; [2]) was 0, the “Redroot pigweed plant response rating” value (pigweed; [3]) was 0 and the “Redroot pigweed plant response rating” value (pigweed; [4]) was 0. For the same compound, the “Redroot pigweed plant response rating” value (pigweed; [5]) was 0, the “Plant response rating, Redroot pigweed” value (pigweed; [6]) was 0 and the “Rape plant response rating” value (rape; [1]) was 0. For the same compound, the “Rape plant response rating” value (rape; [7]) was 0, the “Rape plant response rating” value (rape; [8]) was 0 and the “Plant response rating, Rape” value (rape; [2]) was 0. The “Rape plant response rating” value (rape; [3]) was 0, the “Rape plant response rating” value (rape; [4]) was 0 and the “Rape plant response rating” value (rape; [5]) was 0. For the same compound, the “Plant response rating, Rape” value (rape; [6]) was 0, the “Sugarbeets plant response rating” value (sugar beet; [1]) was 0 and the “Sugarbeets plant response rating” value (sugar beet; [7]) was 0. For the same compound, the “Sugarbeets plant response rating” value (sugar beet; [8]) was 0, the “Plant response rating, Sugarbeets” value (sugar beet; [2]) was 0 and the “Sugarbeets plant response rating” value (sugar beet; [3]) was 0. The “Sugarbeets plant response rating” value (sugar beet; [4]) was 0, the “Sugarbeets plant response rating” value (sugar beet; [5]) was 0 and the “Plant response rating, Sugarbeets” value (sugar beet; [6]) was 0. For the same compound, the “Wheat plant response rating” value (wheat; [1]) was 0, the “Wheat plant response rating” value (wheat; [7]) was 0 and the “Wheat plant response rating” value (wheat; [8]) was 0. For the same compound, the “Plant response rating, Wheat” value (wheat; [2]) was 0, the “Wheat plant response rating” value (wheat; [3]) was 0 and the “Wheat plant response rating” value (wheat; [4]) was 0. The “Wheat plant response rating” value (wheat; [5]) was 0, the “Plant response rating, Wheat” value (wheat; [6]) was 0 and the “Wild oats plant response rating” value (wild oat; [1]) was 0. The “Wild oats plant response rating” value (wild oat; [7]) was 0, the “Wild oats plant response rating” value (wild oat; [8]) was 4 and the “Plant response rating, Wild oats” value (wild oat; [2]) was 0. For the same compound, the “Wild oats plant response rating” value (wild oat; [3]) was 0, the “Wild oats plant response rating” value (wild oat; [4]) was 0 and the “Wild oats plant response rating” value (wild oat; [5]) was 0. For the same compound, the “Plant response rating, Wild oats” value (wild oat; [6]) was 5, the “Nutsedge plant response rating” value (purple nutsedge; [1]) was 0 and the “Nutsedge plant response rating” value (purple nutsedge; [7]) was 0. The “Nutsedge plant response rating” value (purple nutsedge; [8]) was 0, the “Plant response rating, Nutsedge” value (purple nutsedge; [2]) was 0 and the “Nutsedge plant response rating” value (purple nutsedge; [3]) was 0. For the same compound, the “Nutsedge plant response rating” value (purple nutsedge; [4]) was 0, the “Nutsedge plant response rating” value (purple nutsedge; [5]) was 0 and the “Plant response rating, Nutsedge” value (purple nutsedge; [6]) was 0. For the same compound, the “Rice plant response rating” value (rice; [9]) was 0, the “Rice plant response rating (0 to 10 scale, 0 is no effect, 10 is complete control)” value (rice; [10]) was 0 and the “Rice plant response rating” value (rice; [11]) was 0. The “Rice plant response rating” value (rice; [12]) was 0, the “Barnyardgrass plant response rating” value (bamyardgrass; [9]) was 0 and the “Barnyardgrass plant response rating (0 to 10 scale, 0 is no effect, 10 is complete control)” value (bamyardgrass; [10]) was 0. For the same compound, the “Barnyardgrass plant response rating” value (bamyardgrass; [11]) was 0 and the “Barnyardgrass plant response rating” value (bamyardgrass; [12]) was 0.
